According to article PMC4051119, “Bacterial actin MreB forms antiparallel double filaments” (eLife, 2014):
Where “and” joins values, the source holds several entries; their conditions need not be identical. Equal entries are not always repeated. Where two headings read alike, the source gives them in different places.

Assays:
cell morphology = system: cell morphology; design: method as in earlier work; conditions: ref Iwai et al., 2002; Gitai et al., 2005; Bean et al., 2009; Takacs et al., 2010; cited from earlier work
ΔCcMreBdh = molecular target: T1, ΔCcMreBdh (Caulobacter vibrioides, UniProt A0A0H3C7V4, F102S/V103G); test: Isothermal titration calorimetry of nucleotides and MP265 binding to MreB; design: species or system Caulobacter crescentus; conditions: ITC
T1 construct: added initiator Met (M before I9) (N); made in house; host or cells: E. coli C41(DE3) (printed for the sister construct ΔCcMreBh)
Method: […] Samples were stored by the instrument in 96-well microtitre plates at 5°C prior to loading and performing the ITC titrations. […] Heat from the pre-injection was not used during fitting. Data were analysed manually in the Origin software package provided by the manufacturer and fit to a single set of binding sites model. […] The small endothermic heats of each injection in these experiments were fitted to a simple linear function that was subsequently subtracted from the equivalent integrated heats of the experiment when protein was present.

[1] = 25°C, ligand titrated into ΔCcMreBdh alone, read-out: Kd
[2] = 25°C, ligand titrated into ΔCcMreBdh alone

T1 sequence (A0A0H3C7V4 9-347 F102S/V103G): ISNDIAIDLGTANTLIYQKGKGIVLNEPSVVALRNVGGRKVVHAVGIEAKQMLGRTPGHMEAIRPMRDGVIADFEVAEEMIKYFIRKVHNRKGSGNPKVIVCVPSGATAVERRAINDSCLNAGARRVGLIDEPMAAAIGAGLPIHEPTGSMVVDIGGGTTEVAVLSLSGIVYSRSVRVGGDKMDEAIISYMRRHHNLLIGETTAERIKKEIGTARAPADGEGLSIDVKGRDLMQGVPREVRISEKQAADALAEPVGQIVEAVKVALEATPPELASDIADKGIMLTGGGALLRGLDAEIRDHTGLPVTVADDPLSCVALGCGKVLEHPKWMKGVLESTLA

## N=C(N)SCc1ccc(Cl)cc1 [MP265]
Cell morphology
  effect on cell morphology: perturb cell morphology reminiscent of an MreB knock-out
ΔCcMreBdh; 15°C, in the presence of 0.5 mM ADP, data not shown, read-out: affinity (Kd)
  Kd: 0.6 µM
ΔCcMreBdh; 15°C, in the presence of 0.5 mM AMPPNP, data not shown, read-out: affinity (Kd)
  Kd: 0.7 µM
ΔCcMreBdh; 15°C, ΔCcMreBdh alone, data not shown, read-out: affinity (Kd)
  Kd: 19 µM
ΔCcMreBdh; 25°C, in the presence of 0.5 mM ADP
  ΔH: -12 kcal/mol
ΔCcMreBdh; 25°C, in the presence of 0.5 mM ADP, read-out: Kd
  Kd: 1.3 µM
ΔCcMreBdh; 25°C, in the presence of 0.5 mM AMPPNP
  ΔH: -11 kcal/mol
ΔCcMreBdh; 25°C, in the presence of 0.5 mM AMPPNP, read-out: Kd
  Kd: 1.7 µM
ΔCcMreBdh; [1]
  Kd: ~27 µM and 26 µM and 27 µM
ΔCcMreBdh; with nucleotide versus ΔCcMreBdh alone
  increase of binding affinity in the presence of di- and trinucleotide phosphates: 20–30 fold

## N=C(N)SCc1ccc(Cl)c(Cl)c1 [A22, S-(3,4-dichlorobenzyl) isothiourea]
Cell morphology
  effect on cell morphology: perturb cell morphology reminiscent of an MreB knock-out

## Nc1ncnc2c1ncn2[C@@H]1O[C@H](COP(=O)(O)OP(=O)(O)NP(=O)(O)O)[C@@H](O)[C@H]1O [AMPPNP]
ΔCcMreBdh; [2]
  ΔH: -4.4 kcal/mol
ΔCcMreBdh; [1]
  Kd: ~65 µM and 65 µM

## Nc1ncnc2c1ncn2[C@@H]1O[C@H](CO[P@](=O)(O)O[P@](=O)(O)O[P@@](=O)(O)S)[C@@H](O)[C@H]1O [ATPγS]
ΔCcMreBdh; [2]
  ΔH: -7.7 kcal/mol
ΔCcMreBdh; Kd, 25°C, ligand titrated into ΔCcMreBdh alone
  Kd: ~4.6 µM and 4.5 µM

## Nc1ncnc2c1ncn2[C@@H]1O[C@H](COP(=O)(O)OP(=O)(O)O)[C@@H](O)[C@H]1O [ADP]
ΔCcMreBdh; [2]
  ΔH: -5.3 kcal/mol
ΔCcMreBdh; [1]
  Kd: ~4 µM and 4 µM

## Nc1ncnc2c1ncn2[C@@H]1O[C@H](COP(=O)(O)OP(=O)(O)OP(=O)(O)O)[C@@H](O)[C@H]1O [ATP]
ΔCcMreBdh; [2]
  ΔH: -6.0 kcal/mol
ΔCcMreBdh; [1]
  Kd: ~1 µM and 1 µM
